Laboratory results as given in patent US6806230B1, “Pyrimidine derivatives and herbicides containing them” (Kumiai Chemical Industry Co., Ltd., priority 1999, dated 2004).

Columns and labels:
Format in all cases: in vivo
[1] = test system: barnyard grass (Eo); assay: Test Example 1: herbicidal effects by flooded paddy field treatment; details: dose 100 gai/10a, examined on 21st day after treatment, index 0-5 per Table 44;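 note: 0-5 growth inhibition grade; 5 = over 90%; 4 = 70-90%; 3 = 50-70%; 2 = 30-50%; 1 = 10-30%; 0 = under 10%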
Method in brief: (§1)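 Herbicidal effect scored 21 days post-treatment after greenhouse cultivation. Treatment was applied dropwise to the water surface, one day after sowing, as a diluted wettable powder (100 g a.i./10 ares). Pots held puddled paddy soil under 3 cm water.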

[2] = test system: barnyard grass (Ec); assay: Test Example 3: herbicidal effects by foliage treatment in upland field; parameters: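 0-5 growth inhibition grade; 5 = over 90%; 4 = 70-90%; 3 = 50-70%; 2 = 30-50%; 1 = 10-30%; 0 = under 10%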; details: dose 100 g active ingredient per 10 ares, examined on the 14th day after treatment
Method in brief: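 Barnyard grass and green foxtail were grown in upland soil for 2 weeks in a greenhouse. A water-diluted wettable powder was sprayed over the foliage at 100 l per 10 ares, giving 100 g active ingredient per 10 ares. Herbicidal effect was scored on day 14 after treatment.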

[3] = test system: green foxtail (Se); assay: Test Example 2: herbicidal effects by upland soil treatment; details: dose 100 g active ingredient per 10 ares, examined on the 21st day after treatment, standards of Table 44;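 note: 0-5 growth inhibition grade; 5 = over 90%; 4 = 70-90%; 3 = 50-70%; 2 = 30-50%; 1 = 10-30%; 0 = under 10%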
Method in brief: (§2)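 Pre-emergence test: barnyard grass and green foxtail sown in upland soil, then soil surface sprayed with wettable-powder formulation at 100 g active ingredient per 10 ares (100 l per 10 ares). Grown in greenhouse; herbicidal effect scored on a rating scale 21 days after treatment.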

[4] = test system: barnyard grass (Ec); assay: as above; parameters: scale not given here; details: dose 100 g active ingredient per 10 ares, examined on the 21st day after treatment, standards of Table 44
Method in brief: as §2

[5] = test system: monochoria (Mo); assay: Test Example 1: herbicidal effects by flooded paddy field treatment; details: dose 100 gai/10a, examined on 21st day after treatment, index 0-5 per Table 44;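 note: 0-5 growth inhibition grade; 5 = over 90%; 4 = 70-90%; 3 = 50-70%; 2 = 30-50%; 1 = 10-30%; 0 = under 10%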
Method in brief: as §1

[6] = test system: monochoria (Mo); assay: Test Example 4: selectivity for a crop plant by flooded paddy field treatment; parameters: scale not given here; details: dose 25 g active ingredient per 10 ares, examined on the 21st day after treatment
Method in brief: (§3)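 Flooded-paddy treatment: the wettable powder formulation, diluted in water, was applied dropwise to 3 cm floodwater at 25 g a.i./10 ares one day after sowing barnyard grass and monochoria and transplanting rice at the second leaf stage. Greenhouse grown; herbicidal effect rated against set standards on day 21.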

[7] = test system: barnyard grass (Eo); assay: as above; parameters: scale not given here; details: dose 25 g active ingredient per 10 ares, examined on the 21st day after treatment
Method in brief: as §3

[8] = test system: rice (Or); assay: as above; parameters: scale not given here; details: rice transplanted at second leaf stage, dose 25 g active ingredient per 10 ares, examined on the 21st day after treatment
Method in brief: as §3

[9] = test system: corn (Ze); assay: Test Example 5: selectivity for a crop plant by soil treatment in upland field; parameters: scale not given here; details: dose 25 gai/10a, 21st day after treatment, index per Table 44
Method: (§4) In a 80 cm^2 plastic pot, upland soil was filled, and seeds of barnyard grass (Ec), green foxtail (Se), soybean (G1), wheat (Tr) and corn (Ze) were sown and covered with soil. A wettable powder prepared in accordance with Formulation Example 1 was diluted with water and uniformly applied to the soil surface by a small size spray at a rate of 100 l per 10 ares so that the dose of the active ingredient would be 25 g per 10 ares. Thereafter, cultivation was carried out in a green house, and on the 21st day after the treatment, the herbicidal effects were examined in accordance with the standards of Table 44.

[10] = test system: soybean (G1); assay: as above; parameters: scale not given here; details: dose 25 gai/10a, 21st day after treatment, index per Table 44
Method: as §4

[11] = test system: barnyard grass (Ec); assay: as above; parameters: scale not given here; details: dose 25 gai/10a, 21st day after treatment, index per Table 44
Method: as §4

[12] = test system: wheat (Tr); assay: as above; parameters: scale not given here; details: dose 25 gai/10a, 21st day after treatment, index per Table 44
Method: as §4

SMILES	Herbicidal effect index, Eo [1]	Ec (herbicidal effects, index) [2]	herbicidal effects, Se (green foxtail) [3]	herbicidal effects, Ec (barnyard grass) [4]	Herbicidal effect index, Mo [5]	Mo (herbicidal effects, index) [6]	Eo (herbicidal effects, index) [7]	Or (effect on crop plant rice, index) [8]	Ze (herbicidal effect index on crop) [9]	Gl (herbicidal effect index on crop) [10]	Ec (herbicidal effect index) [11]	Tr (herbicidal effect index on crop) [12]
CCC(C)C(c1cncnc1C(F)(F)F)N(C)C(=O)Cc1ccc(C)cc1 (mixture of isomers) [Compound 1-60]	5	4	5	5	5	5	5	1	0	1	5	2
CC(C)C(c1cncnc1C(F)(F)F)N(C(=O)Cc1ccc(F)cc1)C1CC1 (racemic) [Compound 1-83]	5	5	5	5	5	5	5	1	1	1	5	2
CC(C)C(c1cncnc1C(F)(F)F)N(C)C(=O)Cc1ccc(Cl)cc1F (racemic) [Compound 1-46]	5	4	5	5	5	5	5	0	0	1	5	3
CC(C)C(c1cncnc1C(F)(F)F)N(C)C(=O)Cc1ccccc1F (racemic) [Compound 1-100]	5	5	5	5	5	–	–	–	2	0	5	2
CCN(C(=O)Cc1ccc(C)cc1)C(c1cncnc1C(F)(F)F)C(C)C (racemic) [Compound 1-61]	5	4	5	5	5	5	5	1	0	1	5	3
CCN(C(=O)Cc1ccc(Cl)cc1)C(c1cncnc1C(F)(F)F)C(C)C (racemic) [Compound 1-48]	5	5	5	5	5	5	5	1	0	0	4	1
CN(C(=O)Cc1ccc(F)cc1)C(c1cncnc1C(F)(F)F)C(C)(C)C (racemic) [Compound 1-53]	5	4	5	5	5	5	5	1	0	1	4	2
Cc1ccc(CC(=O)N(C)C(c2cncnc2C)C(C)C)cc1 (racemic) [Compound 1-89]	5	5	5	5	5	5	5	0	2	0	4	2
CC(C)C(c1cncnc1C(F)(F)F)N(C)C(=O)Cc1ccc(I)cc1 (racemic) [Compound 1-42]	5	4	5	5	5	5	5	0	0	0	5	0
CN(C(=O)Cc1ccc(Cl)cc1)C(c1cncnc1C(F)(F)F)C(C)(C)C (racemic) [Compound 1-54]	5	5	5	5	5	5	5	1	0	0	4	1
Cc1ncncc1C(C(C)C)N(C)C(=O)Cc1ccc(Cl)cc1 (racemic) [Compound 1-56]	5	4	5	5	5	–	–	–	3	0	5	4
Cc1ccc(CC(=O)N(C)C(c2cncnc2C(F)(F)F)C(C)(C)C)cc1 (racemic) [Compound 1-55]	5	4	5	5	5	5	5	1	0	1	5	1
CC(C)C(c1cncnc1C(F)(F)F)N(C(=O)Cc1ccc(Cl)cc1)C1CC1 (racemic) [Compound 1-81]	5	4	5	5	5	5	5	0	0	0	4	1
CCC(C)C(c1cncnc1C(F)(F)F)N(C)C(=O)Cc1ccc(F)cc1 (mixture of isomers) [Compound 1-58]	5	4	5	5	5	–	–	–	0	0	5	3
CC(C)C(c1cncnc1C(F)(F)F)N(C)C(=O)Cc1ccc(OC(F)(F)F)cc1 (racemic) [Compound 1-95]	5	5	5	5	5	–	–	–	0	1	5	0
